Laboratory results from patent US20040175447A1, “Feeds and fertilizers containing pentacyclic triterpenes” (The Nisshin OilliO, Ltd., priority 2001, published 2004).

Tested on: B-16 melanoma cells
Assay: Evaluation of melanin production-inhibitory effect (cell-whitening degree of cultured B-16 melanoma cells); as to Melanin production-inhibitory effect (cell-whitening degree): key: ++: The whitening degree is higher than that observed for the positive control; +: The whitening degree is almost identical to that observed for the positive control; ±: The whitening degree is not higher than that observed for the positive control, but higher than that observed for the control; −: The whitening degree is almost identical to that observed for the control
Assay type: cell-based
Conditions: for Melanin production-inhibitory effect (cell-whitening degree): positive control 450 ppm vitamin C-magnesium phosphate; for melanogenesis-inhibitory function relative to that observed when 450 ppm of vitamin C-magnesium phosphate (standard) is added: from Table 1
Description: In the present invention, the melanogenesis-inhibitory effect is evaluated and compared on the basis of the results of tests for examining the melanogenesis-inhibitory function in which B-16 melanoma cells are cultivated, as a primary evaluation. Moreover, a feed is, for instance, practically prepared and its effectiveness in the melanogenesis-inhibition is evaluated as a secondary evaluation. It has been confirmed that the pentacyclic triterpenes whose strong melanogenesis-inhibitory function is confirmed by the cell culture test as the primary evaluation also show an excellent effect in the secondary evaluation test. In addition, it has also been confirmed that there is a correlation between the results obtained in these two evaluation methods.
If the culture system includes a melanogenesis-inhibitory substance during the proliferation thereof, the blackening of the cells is suppressed while the whitening thereof is relatively promoted. Accordingly, the melanogenesis-inhibitory function of the substance can be evaluated by comparing the degree of whitening observed for the substance with the degree of blackening observed for a control. The evaluated results of the melanogenesis-inhibitory effect obtained in this cell culture system clearly indicate that the pentacyclic triterpenes and/or physiologically acceptable salts thereof or derivatives thereof have quite strong melanogenesis-inhibitory effects. For instance, when comparing the effects thereof with that achieved by vitamin C-magnesium phosphate, the melanogenesis-inhibitory effect is about 100 to 200 times, for maslinic acid, about 100 to 200 times, for maslinic acid salts, about 10 to 100 times, for erythrodiol, about 30 to 120 times, for uvaol, about 30 to 120 times, for betulinic acid, about 10 to 100 times, for betulin, about 100 to 200 times, for ethyl maslinate, about 50 to 150 times, for acetylated maslinic acid, about 30 to 120 times, for triethylsilylated maslinic acid, about 50 to 150 times, for stearoyl derivative of ethyl maslinate, about 10 to 100 times, for acetylated erythrodiol, about 10 to 100 times, for acetylated uvaol, about 10 to 100 times, for ethyl betulinate, and about 5 to 50 times, for acetylated betulin, that observed for the vitamin C-magnesium phosphate.
A culture medium was dispensed to wells of a 6-well plate (2 mL/well each), followed by inoculation of a desired amount of B-16 melanoma cells on each well, allowing the wells to stand at 37° C. and 5% CO2 to thus cultivate the cells. On the day subsequent thereto, a candidate sample (pentacyclic triterpenes) solution prepared was added to and mixed with the culture medium containing the cells and the cultivation was continued. The culture medium was replaced with fresh one on the 5th day from the initiation of the cultivation and the prepared sample solution was again added to the wells. On the next day, the culture medium was removed to recover the cells, followed by the washing of these cells with PBS (phosphate buffered physiological saline) and the subsequent evaluation of the cell-whitening degree. In this respect, the melanogenesis-inhibitory function was evaluated by comparing the cell-whitening degree thus obtained with that observed when using 450 ppm of vitamin C-magnesium phosphate as a known whitening agent (a positive control) and that obtained when any candidate sample was not used (control), according to the following evaluation criteria.
The evaluation criteria for the cell-whitening degree are as follows:
Regarding the results listed in Table 1, the whitening degree observed when adding 450 ppm of vitamin C-magnesium phosphate is selected as a standard.

Row | Compound | Melanin production-inhibitory effect (cell-whitening degree) (2 ppm) | Melanin production-inhibitory effect (cell-whitening degree) (4 ppm) | Melanin production-inhibitory effect (cell-whitening degree) (6 ppm) | Melanin production-inhibitory effect (cell-whitening degree) (8 ppm) | Melanin production-inhibitory effect (cell-whitening degree) (10 ppm) | melanogenesis-inhibitory function relative to that observed when 450 ppm of vitamin C-magnesium phosphate (standard) is added | concentration required for showing the effect identical to that observed for 450 ppm of vitamin C-magnesium phosphate [ppm] | Melanin production-inhibitory effect (cell-whitening degree) (25 ppm) | Melanin production-inhibitory effect (cell-whitening degree) (50 ppm)
1 | CCOC(=O)[C@]12CC[C@@H](C)[C@H](C)[C@H]1C1=CC[C@@H]3[C@@]4(C)CC[C@H](O)C(C)(C)[C@@H]4CC[C@@]3(C)[C@]1(C)CC2 [Compound of Synthesis 6, Ethyl Ursolate] | ± | + | ++ | ++ | ++ | about 110 times |  |  | 
2 | CC1(C)CC[C@]2(C(=O)O)CC[C@]3(C)C(=CC[C@@H]4[C@@]5(C)C[C@@H](O)[C@H](O)C(C)(C)[C@@H]5CC[C@]43C)[C@@H]2C1 [Purified maslinic acid 1, maslinic acid] |  |  |  |  |  | about 110 times | 4 |  | 
3 | CC[Si](CC)(CC)OC(=O)[C@]12CCC(C)(C)C[C@H]1C1=CC[C@@H]3[C@@]4(C)C[C@@H](O[Si](CC)(CC)CC)[C@H](O[Si](CC)(CC)CC)C(C)(C)[C@@H]4CC[C@@]3(C)[C@]1(C)CC2 [Compound of Synthesis 3, Triethylsilyl Ester of 2,3-O-Di-Triethylsilyl-Maslinic Acid] | − |  | ± |  | + | about 40 times |  | + | +
